In US20220089531A1, “NEW […] ACID DERIVATIVES, PHARMACEUTICALLY ACCEPTABLE SALT THEREOF, COMPOSITION THEREOF AND METHOD OF USE THEREOF” (THE GOVERNING COUNCIL OF THE UNIVERSITY OF TORONTO, priority 2018, published 2022):
pIC50: −log10 of the molar value. “And” between values parts separate entries of the source, which are not always exact repeats. Equal entries are not always repeated. Where two headings read alike, the source gives them in different places. Values belong to the compound of their own block, whether it stands above or below them.

Tests used:
[1] = Intrinsic clearance in mouse hepatocyte; assay type: in vitro ADME; settings: mouse, mouse hepatocytes, time points 0-120 minutes, read-out: In vitro T1/2 in mouse hepatocytes
Protocol: (§1) A stock of 100 μM test compound was prepared by diluting the 10 mM test compound in DMSO with a solution of 50% acetonitrile and 50% water. In a 96-well non-coated plate, 198 μL of hepatocytes was pipetted, and the plate was placed in the incubator on an orbital shaker to allow the hepatocytes to warm for 10 minutes. To this solution was added 2 μL of the 100 μM test compound to start the reaction, and the plate was placed on an orbital shaker. At time points of 0, 15, 30, 60, 90 and 120 minutes, the aliquots were mixed with a solution of acetonitrile and internal standard (100 nM alprazolam, 200 nM labetalol, and 2 μM ketoprofen) to terminate the reaction. The reaction solution was then vortexed for 10 minutes and centrifuged at 4,000 rpm for 30 minutes at 4° C. […] of the supernatant was transferred to one new 96-well plate, centrifuged at 4,000 rpm for 30 minutes at 4° C., and 100 μL of the supernatant was transferred to a new 96-well plate ensuring the pellet was not disturbed. 100 μL of ultrapure water was added to all samples for analysis by LC-MS/MS.
(§2) The in vitro half-life (T1/2) was determined by the linear regression of the natural logarithm of the remaining percentage of the parent drug vs. incubation time curve. The slope value (k) of the curve was then substituted into the following equation to determine the in vitro half-life
(§3) The in vitro intrinsic clearance (in vitro CLint, in μL/min/10^6 cells) was determined by the following equation.
(§4) Where volume of incubation=0.2 mL and number of hepatocytes per well=0.1×10^6 cells.
(§5) Bioanalytical method: Column—Phenomenex Synergi 4μ Hydro-PR 80A (2.0×30 mm).
(§6) Mobile phase—0.1% formic acid in water (solvent A) and 0.1% formic acid in acetonitrile (solvent B). Column temperature—room temperature. Injection volume—10 μL. MS analysis—API 4000 instrument from AB Inc (Canada) with an ESI interface.

[2] = tested on: MV-4-11; experiment: Cell Titer-Blue cell viability assay, MV-4-11 (AML); assay type: cell-based; settings: Homo sapiens, MV4-11; AML cell line MV-4-11, 72 hrs exposure
Protocol: (§7) Anti-cancer efficacy of exemplary compounds of this application was assessed in vitro in different cancer cell lines. Cell viability was examined following treatment at various concentration of inhibitor (0.097656-50 μM) using a cell Titer-Blue cell viability assay. 1×10^4 cells/well were plated in 96-well assay plates in culture medium. All cells were grown in DMEM, IMDM and RPMI-1640 supplemented with 10% FBS. After 24 hrs, test compounds and vehicle controls were added to appropriate wells so the final volume was 100 μl in each well. The cells were cultured for the desired test exposure period (72 hrs) at 37° C. and 5% CO2. The assay plates were removed from 37° C. incubator and 20 μl/well of CellTiter-Blue® Reagent was added. The plates were incubated using standard cell culture conditions for 1-4 hours and the plates were shaken for 10 seconds and fluorescence recorded at 560/590 nm.
(§8) Compound I and II were tested for their efficacy against selected chronic myelogenous leukemia, acute myeloid leukemia and healthy human lung cell lines using the protocol stated above.

[3] = tested on: HaCat; experiment: Cell Titer-Blue cell viability assay, HaCat (healthy cell line); assay type: cell-based; settings: Homo sapiens, 72 hrs exposure
Protocol: as §7

[4] = tested on: Mouse Hepatocyte; experiment: Intrinsic clearance in mouse hepatocyte; assay type: in vitro ADME; settings: time points 0-120 minutes
Protocol: as §1, §2, §3, §4, §5, §6

[5] = Bioavailability / PK study in CD-1 mice (IP injection); assay type: in vivo; settings: 20 mg/kg IP, plasma
Protocol: The study groups for PK for compound I, II and comparative experiments with AC-3-19 and JPX-0371 experiments are shown in Table 2.
All animals had free access to food and water. Dose formulation processing during dosing: The formulations will be kept stirred at room temperature for at least 15 min before dosing and during the dosing. Pharmacokinetics (PK) Schedule shown below in Table 3.
Approximately 0.03 mL blood was collected at each time point. Blood of each sample was transferred into plastic micro centrifuge tubes containing heparin-Na as anticoagulant. Collection tubes with blood samples and anticoagulant were inverted several times for proper mixing of the tube contents and then placed on wet ice prior to centrifugation for plasma. The blood samples were centrifuged at 4000 g for 5 min at 4° C. to obtain plasma. The samples were stored in a freezer at −75±15° C. prior to analysis. The study used CD-1 mice (male), n=3, at age approx. 6-8 weeks (20-30 g).
Concentrations of compounds in the plasma samples were analyzed using a LC-MS/MS method. WinNonlin (Phoenix™, version 6.1). Other similar software could have also been used for pharmacokinetic calculations. Pharmacokinetic parameters were calculated, whenever possible from the plasma concentration versus time data: IP parameters including T1/2, Cmax, Tmax, AUClast, AUCinf, MRT are calculated.

[6] = tested on: MOLM-13; experiment: Cell Titer-Blue cell viability assay, MOLM-13 (AML); assay type: cell-based; settings: Homo sapiens; AML cell line MOLM-13, 72 hrs exposure
Protocol: as §7, §8

[7] = tested on: MRC-9; experiment: Cell Titer-Blue cell viability assay, MRC-9 (healthy cell line); assay type: cell-based; settings: Homo sapiens, MRC9; healthy cell line MRC-9, 72 hrs exposure
Protocol: as §7, §8

[8] = tested on: K562; experiment: Cell Titer-Blue cell viability assay, K562 (CML); assay type: cell-based; settings: Homo sapiens; CML cell line K562, 72 hrs exposure
Protocol: as §7, §8

[9] = tested on: NIH 3T3; experiment: Cell Titer-Blue cell viability assay, NIH 3T3; assay type: cell-based; settings: Mus musculus, NIH3T3; NIH 3T3 cells, 72 hrs exposure
Protocol: as §7

[10] = tested on: xenograft models of lung or breast cancer; settings: murine xenograft models of lung or breast cancer; cited from earlier work
[11] = tested on: non-transformed cells (NIH 3T3 cells, STAT3 null mouse embryo fibroblasts, or mouse thymus stromal cells); settings: cited from earlier work
[12] = tested on: phosphorylation of Shc, Src, Jak-1/2, Erk1/2 or Akt; settings: cited from earlier work
[13] = male, CD-1, mouse, ip, 20 mg/kg, individual animal
[14] = male, CD-1, mouse, ip, 20 mg/kg, mean N=3
[15] = male, CD-1, mouse, ip, 20 mg/kg, read-out: t1/2 (converted)

half-life at 1 µM [1]: 0.767 h | pIC50 [2]: 6.32
Compound: CC(C)(C)c1cc(CN(C(=O)CN(Cc2ccc(Cl)cc2)S(=O)(=O)c2c(F)c(F)c(F)c(F)c2F)c2ccc(C(=O)O)cc2)cc(C2CC2)c1 [Compound II]

In vitro T1/2 in mouse hepatocytes [4]: 1.68 h | half-life at 1 µM [1]: 1.67 h | AUC Extr ([5]; individual animal, 20 mg/kg): 0.346% and 0.385% and 0.325% | AUCInf ([5]; individual animal, 20 mg/kg): 7245 ng·h/mL and 6566 ng·h/mL | AUClast ([5]; individual animal, 20 mg/kg): 7217 ng·h/mL and 6545 ng·h/mL | Cmax ([5]; individual animal, 20 mg/kg): 3290 ng/mL and 3480 ng/mL | MRT ([5]; individual animal, 20 mg/kg): 1.99 h and 1.81 h | t1/2 ([5]; individual animal, 20 mg/kg): 3.91 h and 3.97 h | AUC Extr ([5]; mean N=3): 0.352% | AUC(0-inf) [5, 13]: 5820 ng·h/mL | AUC(0-t) [5, 13]: 5800 ng·h/mL | Cmax ([5]; male, CD-1, mouse, ip, 20 mg/kg, individual animal, read-out: Cmax): 3010 ng/mL | MRT ([5]; male, CD-1, mouse, ip, 20 mg/kg, individual animal, read-out: MRT): 1.87 h | half-life ([5]; male, CD-1, mouse, ip, 20 mg/kg, individual animal, read-out: t1/2 (converted)): 3.92 h | AUC(0-inf) [5, 14]: 6540 ng·h/mL | AUC(0-t) [5, 14]: 6520 ng·h/mL | Cmax ([5]; male, CD-1, mouse, ip, 20 mg/kg, mean N=3, read-out: Cmax): 3260 ng/mL | MRT ([5]; male, CD-1, mouse, ip, 20 mg/kg, mean N=3, read-out: MRT): 1.89 h | half-life ([5]; male, CD-1, mouse, ip, 20 mg/kg, mean N=3, read-out: t1/2 (converted)): 3.93 h | half-life ([5]; male, CD-1, mouse, ip, 20 mg/kg, read-out: calculated T1/2 (FIG. 6) (converted)): 3.9 h | Tmax ([5]; male, mouse, mean N=3): 0.5 h | pIC50 [2]: 6.25 | pIC50 [6]: 5.60 to 5.77 | pIC50 [8]: 5.39
Compound: CC(C)(C)c1cc(CN(C(=O)CN(Cc2ccc(Cl)cc2)S(=O)(=O)c2c(F)c(F)c(F)c(F)c2F)c2ccc(C(=O)O)c(O)c2)cc(C2CC2)c1 [Compound I]
pIC50 [3]: 4.70 | pIC50 [7]: 4.52

half-life [5, 15]: 0.94 h | pIC50 [2]: 5.10 | pIC50 [6]: 5.19
Compound: O=C(O)c1ccc(N(Cc2cccc(C3CCCC3)c2)C(=O)CN(Cc2ccc(Cl)cc2)S(=O)(=O)c2c(F)c(F)c(F)c(F)c2F)cc1O [JPX-062, 4-(2-((N-(4-chlorobenzyl)-2,3,4,5,6-pentafluorophenyl)sulfonamido)-N-(3-cyclopentylbenzyl)acetamido)-2-hydroxybenzoic acid]

half-life [5, 15]: 0.35 h | pIC50 [2]: 6.68 | pIC50 [8]: 5.59
Compound: O=C(O)c1ccc(N(Cc2cccc(C3CCCC3)c2)C(=O)CN(Cc2c(F)c(F)c(F)c(F)c2F)S(=O)(=O)c2c(F)c(F)c(F)c(F)c2F)cc1 [JPX-303, 4-(N-(3-cyclopentylbenzyl)-2-((2,3,4,5,6-pentafluoro-N-((perfluorophenyl)methyl)phenyl)sulfonamido)acetamido)benzoic acid]
pIC50 [9]: 5.28

half-life [5, 15]: 0.31 h | pIC50 [2]: 6.03 | pIC50 [6]: 5.96
Compound: O=C(O)c1ccc(N(Cc2cccc(C3CCCC3)c2)C(=O)CN(Cc2ccc(Cl)cc2)S(=O)(=O)c2c(F)c(F)c(F)c(F)c2F)cc1 [JPX-313, 4-(2-((N-(4-chlorobenzyl)-2,3,4,5,6-pentafluorophenyl)sulfonamido)-N-(3-cyclopentylbenzyl)acetamido)benzoic acid]

half-life [5, 15]: 0.861 h | pIC50 [2]: 5.96 | pIC50 [6]: 6.10
Compound: O=C(O)c1ccc(N(Cc2cccc(C3CCCC3)c2)C(=O)CN(Cc2c(F)c(F)c(F)c(F)c2F)S(=O)(=O)c2c(F)c(F)c(F)c(F)c2F)cc1O [JPX-320]

Compound: BP-1-102
anti-tumor effect in vivo [10]: dramatic regression in tumor volumes | effect on non-transformed cells [11]: no effect | effect on phosphorylation of Shc, Src, Jak-1/2, Erk1/2 or Akt [12]: little or no effect
